Results on 1 molecule are retold here after patent US9364480B2, “Pharmaceutical composition for preventing or treating cancer, containing enoblock as active ingredient” (GWANGJU INSTITUTE OF SCIENCE AND TECHNOLOGY, priority 2012, dated 2016).

“Also recorded” adds a separate entry of the source.

Data set [1] relates to macrophages. The experiment in a line: Macrophage cytotoxicity (MTT assay). The data set is classed as cell-based. Here is the method: (§1) FIG. 14. […] Treatment with 3 mM H2O2 for 48 h was used as a positive control.
A general note: Formazan colour is commonly taken as a measure of viable cells.

Data set [2] deals with purified human enolase (Homo sapiens, UniProt P06733). The experiment in a line: Affinity matrix binding of purified enolase (Western blot). Here is the method:
(§2) FIG. 4. […] (a) Affinity chromatography study for ENOblock in HCT116 cancer cells. […] (b) Sequence identification for the enolase monomer subunit. […] Mascot scores above 100 were deemed to be significant. […] Twenty micrograms of cell lysate from YD-10B oral cancer cells or Huh7 hepatocytes were used as positive controls. […] As a positive control, ENOblock affinity matrix was incubated with 200 μg of HCT 116 cell lysate; 50 μg cell lysate from HCT116 cancer cells was used as a positive control for the enolase antibody.
(§3) Affinity chromatography was used to identify the cellular target for AP-III-a4. Target identification strategies for the triazine library used in this study are relatively straightforward, because the molecules contain a built-in linker moiety. This allows conjugation to an affinity matrix with reduced risk of compromising biological activity.
On the technique in general: A western blot detects proteins with antibodies after separation by electrophoresis.

For data set [3], the system named is HCT116 colon carcinoma cells. The data set is described as follows: Screening for apoptosis inducers effective under hypoxia (MTT cytotoxicity, hypoxia vs normoxia). The data set is classed as cell-based. Here is the method:
FIG. 1. Discovery of compound AP-III-a4 (ENOblock). (a) Schematic of the screening system used to detect apoptosis inducers effective under hypoxia. HCT116 cancer cells were seeded in parallel 96-well culture plates. Hypoxia was induced in one plate using 150 μM cobalt chloride treatment. Triazine library compound at 5 μM concentration was added 4 h later, and cell death was determined 24 h after hypoxia induction. […] (b) Chemical structures of AP-III-a4 (ENOblock) and the control compounds, AP-IV-e3 and AP-I-f10. Chemical structures of GAPDS, which targets glyceraldehyde 3-phosphate dehydrogenase (GAPDH), and rosiglitazone, a well-known anti-diabetes drug, are also shown. […] Error=SD; *=P value<0.05 for increased cell death compared to normoxia. P value: hypox 10=1.23×10^−6; hypox 5=2.38×10^−6; hypox 2.5=1.16×10^−5; hypox 1.25=0.000334. (d) Representative phase contrast microscopic images of HCT116 colon cancer cells treated with ENOblock under normoxia or hypoxia.
HCT116 colon carcinoma cells were seeded in 2 sets of 96 well plates at a density of 5×10^3 cells per well. ‘Low glucose’ DMEM (containing 5 mM glucose; Invitrogen, OR, USA) was used for screening, because glycolysis inhibitors, such as 2-Deoxy-D-glucose (2-DG), are effective by competing with glucose. 24 h later, the hypoxic condition was induced in one set of 96 well plates by treatment with 150 μM of 0.22 μm filtered CoCl2 and the culture media volume was reduced by 50% (to 100 μL/well), as previously described.^49 4 h later, test compounds from a tagged triazine library^5 were screened at a concentration of 5 μM in duplicate wells. Cytotoxicity was determined by MTT assay 24 h after adding drug. ‘Hits’ for further analysis were classified as compounds that 25% or higher cytotoxicity in the hypoxia condition compared to the normoxia condition (as measured by MTT assay absorbance). 50 μM 2-DG, an inhibitor of glycolysis that selectively kills cancer cells in hypoxic conditions^50, was used as a positive control.
We developed a novel, dual screening system to identify molecules that preferentially kill cancer cells in a hypoxic environment (FIG. 1). A small molecule library of 384 triazines prepared on a solid support5 (5; FIG. 3) was screened. A “hit” molecule was defined as an inducer of at least 25% increased cancer cell toxicity in hypoxia compared to normoxia (as determined using the 3-(4,5-dimethylthiazol-2-yl)-2,5-diphenyltetrazolium bromide, a tetrazole (MTT) assay). Five from 384 triazines screened produced greater cancer cell toxicity under hypoxia.

For data set [4], the system named is macrophages. The experiment in a line: Foam cell formation from macrophages treated with oleic acid. The format is cell-based. The settings on record: 10 μM.
Data set [5] concerns Huh7 hepatocytes. The experiment in a line: Glucose uptake with fluorescent glucose probe 2-NBDG, hepatocytes. The settings on record: 10 μM, 24 h. The format is cell-based.
In data set [6] the target is T1, enolase in HCT116 cancer cell lysate (Homo sapiens, UniProt P06733).
T1 construct: endogenous in cells; host or cells: HCT116 colon carcinoma cells (lysate)
T1 sequence (P06733 2-434): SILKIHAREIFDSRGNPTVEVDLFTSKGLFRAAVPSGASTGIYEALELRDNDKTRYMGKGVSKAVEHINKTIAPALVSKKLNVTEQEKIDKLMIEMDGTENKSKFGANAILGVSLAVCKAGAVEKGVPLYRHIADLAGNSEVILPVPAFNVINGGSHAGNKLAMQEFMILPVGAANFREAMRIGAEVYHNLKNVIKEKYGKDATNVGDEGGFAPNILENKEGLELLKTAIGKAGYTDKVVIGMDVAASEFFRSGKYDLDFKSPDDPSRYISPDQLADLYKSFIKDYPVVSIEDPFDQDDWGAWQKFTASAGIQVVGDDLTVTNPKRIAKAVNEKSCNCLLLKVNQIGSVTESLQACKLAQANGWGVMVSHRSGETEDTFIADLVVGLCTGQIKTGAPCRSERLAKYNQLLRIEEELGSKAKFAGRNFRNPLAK
The experiment in a line: Affinity chromatography / Western blot of affinity matrix eluate, cell lysate. The format is binding. On the procedure:
as §2, §3

In data set [7] the test system is zebrafish larvae. The data set is described as follows: Measurement of glucose uptake in zebrafish (2-NBDG). The format is in vivo. Set-up: 2-NBDG signal in lysed larvae (fluorescent plate reader): dose or concentration left out as unconfirmed. On the procedure: FIG. 12. […] (a) Schematic of our approach to measure the effect of ENOblock treatment on […] in zebrafish.
At 72 hpf, larvae were placed into a 96-well plate (6 eggs/well in 200 μL E3 water supplemented with 0.2 mM 2-phenylthiourea; Sigma). Drug of interest was added for […]. The solution was then replaced with E3 water supplemented with 600 μM 2-NBDG and incubated for 3 h. The larva were washed with E3 water and anesthetized with 0.02% tricaine-supplemented E3 water. One larva was then placed on a chamber slide, containing 3% methylcellulose in E3 water, for fluorescent microscopy (Leica DM2500 microscope equipped with a DFC425 C digital camera). Images were captured at 50× magnification. The remaining 5 larvae where lysed with 120 μL of CelLytic M solution (Sigma-Aldrich) and sonication (4° C., 10″/5″ pulse, 10 min). Lysed larvae were centrifuged at 10000 rpm for 10 min. 100 μL of the supernatant was transferred to a 96-well plate and fluorescence was measured with a fluorescent microplate reader (SpectraMAX Gemini XS, Molecular Devices; λex=466 nm […]).

The test system of data set [8] is pre-adipocytes undergoing adipogenesis. The data set is described as follows: Adipogenesis lipid accumulation (Oil Red O staining). The format is cell-based.
Data set [9] has as its system PEPCK expression in HEK cells. The data set is described as follows: PEPCK expression in kidney cells. The settings on record: 10 μM, 24 h. The format is cell-based. An excerpt:
FIG. 10. […] Error=SD; *=P<0.05 compared to the no drug (DMSO-treated) group. […] Error=SD; *=P<0.05 for reduced PEPCK expression compared to the no drug (DMSO-treated) group.

The subject of data set [10] is monocytes. The experiment in a line: Monocyte differentiation into macrophages (attached cell count, PMA). The data set is classed as cell-based. The settings on record: PMA treated; 10 μM. Here is the method: as §1

Sequence of purified human enolase (P06733 whole entry): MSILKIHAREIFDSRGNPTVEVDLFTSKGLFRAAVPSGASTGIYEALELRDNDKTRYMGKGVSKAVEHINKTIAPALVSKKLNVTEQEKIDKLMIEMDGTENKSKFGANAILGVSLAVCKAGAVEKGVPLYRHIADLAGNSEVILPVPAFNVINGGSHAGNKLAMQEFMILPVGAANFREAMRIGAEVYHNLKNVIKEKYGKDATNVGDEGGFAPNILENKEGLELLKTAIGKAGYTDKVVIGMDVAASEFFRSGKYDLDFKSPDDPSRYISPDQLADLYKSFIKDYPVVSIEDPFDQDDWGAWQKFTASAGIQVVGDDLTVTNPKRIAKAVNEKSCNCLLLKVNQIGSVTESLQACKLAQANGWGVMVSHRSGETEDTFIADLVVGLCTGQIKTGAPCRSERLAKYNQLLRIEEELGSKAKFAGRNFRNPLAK

Turning to `NCCOCCOCCNC(=O)Cc1ccc(Nc2nc(NCc3ccc(F)cc3)nc(NCC3CCCCC3)n2)cc1` [ENOblock], the “cytotoxicity to macrophages (MTT absorbance 570 nm)” value in data set [1] is on record as “not due to cytotoxicity”. Moreover, in data set [2], the “binding of purified enolase to compound affinity matrix” value was “purified human enolase binds to the ENOblock affinity matrix; also recorded: could bind to purified human enolase” and the “competition by free compound for purified enolase binding to ENOblock affinity matrix” value was “inhibited purified enolase binding to the ENOblock affinity matrix”. Moreover, the “cell viability of cancer cells cultured under hypoxia” value in data set [3] (FIG. 1c-1d) is “reduced cell viability dose-dependently”. Moreover, the “hit classification in triazine library screen (25% or greater cell death under hypoxia compared to normoxia)” value in data set [3] (HCT116, 5 μM compound, 24 h, MTT) is “best performing hit molecule”. The “cell death in hypoxic conditions compared to normoxia” value in data set [3] (HCT116, hypoxia by 150 μM cobalt chloride, MTT, FIG. 1c) is “higher levels of HCT116 colon cancer cell death in hypoxic conditions (Hypox) compared to normoxia”. Further, the “trypan blue uptake (cell death)” value in [3] (under hypoxia) is recorded as “increased trypan blue uptake under hypoxia”. Besides, in data set [4], the “foam cell formation (Oil Red O staining, microscopy)” value was “inhibited foam cell formation” and the “foam cell formation (count of cells showing lipid accumulation)” value is “inhibited foam cell formation”. Also, the “glucose uptake (2-NBDG)” value in [5] is “induced glucose uptake”. In addition, the “competition by free compound for enolase binding to ENOblock affinity matrix” value in data set [6] is recorded as “completely inhibited enolase binding to the ENOblock affinity matrix”. The “binding of lysate proteins/enolase to compound affinity matrix” value in data set [6] (silver stain, mass spectrometry) was “enolase in HCT116 cancer cell lysate binds to the ENOblock affinity matrix”. Besides, the “glucose uptake in larvae (2-NBDG fluorescence microscopy)” value in [7] (10 μM, 4 h) is “increased glucose uptake in the zebrafish larvae”. Further, in [7] (72 hpf larvae, 10 μM, 4 h, vs 2-NBDG alone), the “2-NBDG fluorescence signal intensity in the eye” value is reported as “induced significantly greater fluorescent tagged glucose uptake in the zebrafish eye”. Also, in data set [7] (72 hpf zebrafish), the “2-NBDG signal in lysed larvae (fluorescent plate reader)” value was “induced glucose uptake”. In data set [8] (10 μM), the “lipid accumulation during adipogenesis (Oil Red O, microscopy)” value was “inhibited lipid accumulation”. Also, in data set [8] (ENOblock treatment with adipogenic cocktail), the “quantification of lipid accumulation during adipogenesis” value is on record as “blocked lipid accumulation during adipogenesis”. Besides, in data set [9], the PEPCK expression result is “inhibited expression of PEPCK”. For the same molecule, in data set [10], the “monocyte differentiation into macrophages (number of attached cells)” value was “inhibited differentiation into macrophages”.
